Measurements reported in US20180079906A1, “AZACYANINE DYES AND USE THEREOF” (Ecole Polytechnique Fédérale de Lausanne (EPFL), priority 2016, published 2018).

Key:
[1] = test system: skin tissue of a nude mouse; test: Ex vivo cell death assay by cryogenic tissue damage (imaging necrosis); details: for fluorescence at the site of focal dry-ice treatment: cryogenic tissue damage, 1, 5, 10 uM dye, 10 min at room temperature
From the text: Ex vivo cell death assay for compounds, VI and XIV were studied using a method of cryogenic tissue damage. […] After gentle washing with PBS, the samples were scanned for fluorescence using an IVIS Spectrum imaging system (FIG. 18-19).

mastocytoma tumor = test: Fluorescence image-guided surgery of mastocytoma tumor in dogs; type: in vivo, dog
Protocol: A kuvasz dog (male, 30 kg) diagnosed with mastocvtoma tumor on his right leg was used for image guided surgery study. All canine studies were performed at Veterinair Verwijscentrum Gouda, Netherlands. Canine was injected intravenous catheterization into the cephalic vein with fluorescence probe XXI (180 nmol/kg) 6h prior to surgery. Canine underwent to general anesthesia prior to surgery. Image guided cancer surgery was performed using Solaris Open-air Fluorescence Imaging System (Perkin Elmer), equipped with four fluorescent channels (470 nm, 660 nm, 750 nm and 800 nm) to obtain real-time visualization of tumor imaging in ambient light (FIGS. 13-15).
A labrador dog (male, 33 kg) diagnosed with mastocytoma tumor on his nose was used for image guided surgery study. All canine studies were performed at Veterinair Verwijscentrum Gouda, Netherlands. Canine was injected intravenous catheterization into the cephalic vein with fluorescence probe XXI (92 nmol/kg) 10 h prior to surgery. Canine underwent to general anesthesia prior to surgery. Image guided cancer surgery was performed using Solaris Open-air Fluorescence Imaging System (Perkin Elmer), equipped with four fluorescent channels (470 nm, 660 nm, 750 nm and 800 nm) to obtain real-time visualization of tumor imaging in ambient light (FIGS. 16-17).

4T1-luc2 tumors = test: In vivo NIR fluorescence imaging of subcutaneous 4T1 tumors in nude mice
Protocol: Female nude mice 6-8 weeks of age were injected with […] of 4T1 cells in 100 ul of PBS subcutaneously into the right flank. Once the tumors reached approximately 0.5 cm^3 in size, animals were injected with 20 nmol of the imaging probe XXI intravenously in 100 ul of PBS. Mice were then imaged at different time points using IVIS Spectrum instrument (Perkin Elmer) at recommended settings 745/810 nm excitation/emission (FIGS. 11-12).

[2] = in methanol, calibration standard; cited from earlier work
[3] = cited from earlier work
[4] = 30 kg dog, 180 nmol/kg I.V., 6h after injection

Which “fluorescence signal from viable cells” value ([1]; cryogenic tissue damage) does the source give for `CC1(C)C2=CC=CN(CCCCCC(=O)O)C2=N/C1=C/C=C1\C[N+](C)(C)CC(/C=C/C2=Nc3c(ccc[n+]3CCCCCC(=O)O)C2(C)C)=C1Cl` [Dye VI] here?
Its value is “no signal”.

And the “fluorescence at the site of focal dry-ice treatment” value [1]?
Its value is “strong fluorescence signal”.

Which “fluorescence at the site of focal dry-ice treatment” value [1] does the source give for `CC1(C)C2=CC=CN(CCCCCC(=O)O)C2=N/C1=C/C=C1\C[N+](C)(C)CC(/C=C/C2=Nc3c(ccc[n+]3CCCCCC(=O)O)C2(C)C)=C1Oc1ccc(S(=O)(=O)O)cc1.[Na+]` [Dye XIV] here?
Its value is “strong accumulation of fluorescence”.

Which “background uptake in normal tissue” value (mastocytoma tumor; [4]) does the source give for `CC1(C)C2=CC=CN(CCCCCC(=O)NCCCC[C@@H]3NC(=O)[C@@H](Cc4ccccc4)NC(=O)[C@H](CC(=O)O)NC(=O)CNC(=O)[C@H](CCCNC(=N)N)NC3=O)C2=N/C1=C/C=C1\C[N+](C)(C)CC(/C=C/C2=Nc3c(ccc[n+]3CCCCCC(=O)NCCCC[C@H]3NC(=O)[C@H](Cc4ccccc4)NC(=O)[C@@H](CC(=O)O)NC(=O)CNC(=O)[C@@H](CCCNC(=N)N)NC3=O)C2(C)C)=C1Oc1ccc(S(=O)(=O)O)cc1.[Na+]` [Dye XXI] here?
Its value is “negligible”.

And the “identification of tumor by fluorescence in vivo” value (mastocytoma tumor; [4])?
Its value is “clearly identified”.

What about the “time post injection of highest accumulation in the tumor tissue” value (mastocytoma tumor; dogs) of the same compound?
The value was no more than 6 h.

And the “time post injection of optimal background/noise ratio calculated from the region of interest” value (4T1-luc2 tumors; 4T1 tumour bearing mice)?
Its value is 2 h.

And the “tumor uptake (kinetics and specificity)” value (4T1-luc2 tumors; subcutaneous tumors in mice)?
Its value is “faster and more specific tumor uptake”.

What about the “time post injection at which optimal background to noise ratio is achieved” value (4T1-luc2 tumors; subcutaneous tumors in mice, intravenous injection) of the same compound?
The value was 2 h.

Which “fluorescence quantum yield (QY)” value [2] does the source give for `CC1(C)C(/C=C/C=C/C=C/C=C2\N(CCCCS(=O)(=O)O)c3ccc4ccccc4c3C2(C)C)=[N+](CCCCS(=O)(=O)[O-])c2ccc3ccccc3c21` [ICG, Indocyanine Green] here?
The value was 7.8%.

And the solubility in saline [3]?
Its solubility in saline is “not readily soluble”.
